The results in this text go back to patent US11413267B2, “Methods and compositions for inhibition of ATR and FANCD2 activation” (priority 2012, dated 2022).

Marks after values point to notes of the source that are not given here.

Data set [1] deals with CHO cells. In words: In vitro chromosome aberration test. The class given is cell-based, Chinese Hamster. The conditions noted are these: for Average aberrant metaphases (%) / Chromatid break (No.) / Chromatid deletion / Complex rerrangement / Dicentric / Polyploid / Pulverized cell / Quadriradial / Ring / Triradial: Chinese hamster, 20 h. On the procedure:
To test this hypothesis, we investigated the cytogenetic effect of Protoapigenone (I-1) on CHO cells (FIG. 1).
In brief, 5×10^5 Chinese Hamster Ovary (CHO) cells were seeded in 60-mm dishes 1 d before the experiment. Protoapigenone (I-1)-induced structural chromosomal changes after 20 h were compared with that of the cells cultured in 2 μM mitomycin C. At 18 h after Protoapigenone (I-1), 0.1 μg/mL colchicine was added for 2 h, and metaphase cells were collected by shaking them off the dishes. Mitotic cells were treated with 0.5% KCl for 10 min and fixed with a 3:1 mixture of methanol: glacial acetic acid. The cells were then spread on slides for chromosome staining with 5% Giemsa solution. We then analyzed the chromosome structure of 200 well-spread metaphase cells (100 metaphase cells/experiment) under a 100× oil immersion objective.

For data set [2], the system named is cancer cells. In words: MTT cytotoxicity assay on cancer cells, 48 h. The conditions noted are these: FIG. 4. It counts as cell-based, human.
For data set [3], the system named is FANCD2. The experiment in a line: Immunoblot of FANCD2 monoubiquitination. The conditions noted are these: cisplatin-treated cells, same doses as Protoapigenone (I-1). It counts as cell-based, human. The source says: Understanding the mechanism by which the benzopyran-4-one derivatives compounds cause chromosomal breakages (FIG. 1) and other abnormalities might aid in identifying their targets. We hypothesized that genes with functions associated with DNA damage checkpoints and/or DNA repair might be targeted by benzopyran-4-one derivatives. To test this hypothesis, we assessed the effects of benzopyran-4-one derivatives on DDR induced by H2O2. […] In response to DNA double-strand breaks (DSBs), FANCD2 is known to be monoubiquitinated on K561 (FANCD2-Ub) in an ATR-dependent manner to stimulate repair (Andreassen P R, et al. Genes Dev 2004). […] Collectively, these findings indicate that benzopyran-4-one derivatives can modify ATR signaling after various types of DNA damage.
Inhibition of the checkpoint and repair mechanisms leads to chemosensitization in cancers. […] We further treated individual cells with cisplatin in combination with several varying doses of benzopyran-4-one derivatives, and counted survival colonies to determine their ability to survive after cisplatin-induced damage. […]
Cell lysate preparations, gel electrophoresis, and immunoblotting were performed as previously described (23). The binding of primary antibodies were detected by horseradish peroxidase-coupled secondary antibodies (Jackson ImmunoResearch) followed by enhanced chemiluminescence (ECL) (Millipore). […]

Data set [4] has as its system MDA-MB-231 cells. In words: In vitro chemosensitization assay (clonogenic survival). It counts as cell-based, human. From the text:
Inhibition of the checkpoint and repair mechanisms leads to chemosensitization in cancers. […] We further treated individual cells with cisplatin in combination with several varying doses of benzopyran-4-one derivatives, and counted survival colonies to determine their ability to survive after cisplatin-induced damage. […] To investigate the chemosensitization effect of low-dose benzopyran-4-one derivatives in vivo, we established a tumor xenograft in nude mice using human MDA-MB-231 tumor cells, which are considered to be more resistant to cisplatin and are also sensitive to treatment with benzopyran-4-one derivatives, at least as compared to A549 cells (FIGS. 4, 17(a) and 17(b)). […] The pharmacokinetic data of Protoapigenone (I-1) and compound II-1 needs to be compared in future studies to determine the differences in the chemical effects of these 2 compounds in vitro and in vivo.
Please refer to FIGS. 31(a)-31(e), which are the surviving fractions of MDA-MB-231 cells which were co-administered compound II-1 with the DNA damaging agent, i.e. (a) doxorubicin, (b) etoposide, (c) mytomycin C, (d) camptothecin, or (e) taxol. […] Accordingly, a low dose of benzopyran-4-one derivatives can enhance the chemosensitivity of the chemotherapeutic drug.
To evaluate in vitro chemosensitization, cells were seeded in 6-well plates 1 d before the experiment at a density of 100-400 cells/well. The drugs were incubated with the cells for 6 h, after which the medium was replaced with fresh drug-free FBS-containing medium. The colonies became visible and were counted 7-10 d later using 0.1% crystal violet staining following image capture by a CCD camera (LAS-4000 mini; Fujifilm).

In data set [5] the test system is host cell. The experiment in a line: MTT assay of host cell toxicity. The note with it: 1 μM, 6 hours treatment plus 18 hours fresh medium. It counts as cell-based. How it is done: To understand whether or not inhibition of the virus infection is followed by the host cell toxicity caused by the compound treatments, we performed an MTT [3-(4,5-cimethylthiazol-2-yl)-2,5-diphenyl tetrazolium bromide] assay in cells untreated or treated with indicated compounds for 6 hours. After that, the compound is washed out and the MTT assay was tested after an additional 18 hours of fresh culture medium incubation, in a way similar to the protocol shown in FIG. 26. 0.5 mg/mL of MTT contained media was added to cells at the end of the experiment and incubated for 3 hours. Then, the supernatant was removed and the formazone crystals solubilized using 100 μl of DMSO and the absorbance at 570 nm was read using a microplate reader. […] However, the virus inhibition effect of 50-99% is also shown at this dose of Compound II-1.
(Tetrazolium assays rely on reduction of a dye to a coloured formazan, in cell work by metabolically active cells.)

In the case of `O=C1C=CC(O)(c2cc(=O)c3c(O)cc(O)cc3o2)C=C1` [Compound I-1, Protoapigenone], in data set [1], the “Chromosomal structural changes (breakages, radials, polyploidy), in words” value is on record as “dose-dependent increases” and the “Obtaining complete mitotic chromosome” value is “complete mitotic chromosome could not be obtained”. For the same compound, in data set [1] (2.17 μM), the “Average aberrant metaphases (%)” value was 6.5 * %, the “Chromatid break (No.)” value is 2 No, the Chromatid deletion is 0 No and the Complex rerrangement is 0 No. Also, in data set [1] (2.17 μM), the Dicentric stood at 0 No, the Polyploid was found to be 3 No, the Pulverized cell stood at 0 No and the Quadriradial came to 3 No. In data set [1] (2.17 μM), this compound yielded a Ring of 1 No and a Triradial of 4 No. In addition, in data set [1] (4.35 μM), the “Average aberrant metaphases (%)” value is 14.0 * %, the “Chromatid break (No.)” value came out at 1 No, the Chromatid deletion was 1 No and the Complex rerrangement worked out at 0 No. In addition, in data set [1] (4.35 μM), the Dicentric is 0 No, the Polyploid was found to be 1 No, the Pulverized cell was 1 No and the Quadriradial amounted to 9 No. Also, in data set [1] (4.35 μM), the Ring stood at 2 No and the Triradial came to 13 No.

For the compound `O=C1C=CC(O)(c2cc(=O)c3c(ccc4ccccc43)o2)C=C1` [Compound II-1, 3-(1-hydroxy-4-oxo-cyclohexa-2,5-dienyl)-1H-benzo[f]chromen-1-one], the “Cytotoxicity, comparison” value in data set [2] is “more potent than Protoapigenone (I-1)”. In data set [3], the “FANCD2 monoubiquitination and protein stability” value is given as “not only inhibits monoubiquitination of FANCD2 but also affects FANCD2 protein stability”. In addition, the “Survival of MDA-MB-231 cells” value in data set [4] (2.5 nM to 20.0 nM co-administered with camptothecin) is “not significantly decreased”; in data set [4] (2.5 nM to 20.0 nM co-administered with doxorubicin), “significantly decreased”; in data set [4] (2.5 nM to 20.0 nM co-administered with etoposide), “significantly decreased”; in data set [4] (2.5 nM to 20.0 nM co-administered with mytomycin C) it was “significantly decreased”; in data set [4] (2.5 nM to 20.0 nM co-administered with taxol) it was “not significantly decreased”. Further, in data set [5], the “Decrease of surviving cells” value is recorded as 5-10%.
